Key:
in vivo [1] = conditions: rat, po, 4.2 mg/kg
in vivo [2] = conditions: rat, iv
in vivo [3] = conditions: rat, iv; remark: listed apart in the source
in vivo [4] = conditions: rat, iv; remark: listed apart in the source
in vivo [5] = conditions: rat, iv; remark: listed apart in the source

Cc1ccccc1CN(c1ccc(C#N)c(Cl)c1)[C@H]1CCN(S(C)(=O)=O)C1
bioavailability (in vivo [1]): 100%
Vd (in vivo [2]): 12 L/kg
Cmax (in vivo [3]): 221 ng/mL
half-life (in vivo [4]): 1.6 h
clearance (in vivo [5]): 98 mL/min/kg
